These results are taken from patent US20250333388A1, “OXADIAZOLONE COMPOUNDS AND HERBICIDAL COMPOSITIONS AND USES THEREOF” (SHANDONG BINNONG TECHNOLOGY CO., LTD., priority 2023, published 2025).

What all share (type): in vivo
For one data set, the system named is corn. The experiment in a line: Safety testing on corn, stem and leaf spray in greenhouse. Particulars: for Corn (%) safety (crop damage): stem and leaf spray; for inhibitory effect on corn (crop safety): at different doses, as compared to Control compounds A, B, and C, summary of Table 6. As to the method: (§1) The seeds of corn and rice were sown into nutrient soil in plastic cups, respectively, then covered with soil, compacted, watered, and further cultivated in a greenhouse by conventional methods. The stems and leaves of the crops were sprayed when the crops reached the 2- to 3-leaf stage. The test compounds of the present application were dissolved in acetone, followed by addition of Tween 80. The solution was then diluted with a certain amount of water to a certain solubility, and sprayed onto the plants using a spray tower. The test was repeated three times. After drying naturally in the shade, the plants were put in a greenhouse and managed according to conventional methods. The growth and development of corn and rice were observed, and the safety of the test agent on corn and rice was checked visually periodically. A safety grading standard was represented by 0-100%, with “O” representing no damage to crops, and “100%” representing complete killing or severe inhibition of crops.

The subject of a further data set is crabgrass. The experiment in a line: Test of herbicidal activity, post-seedling stem and leaf spray in greenhouse, crabgrass. Particulars: for Crabgrass (%) control effect: post-seedling stem and leaf spray. As to the method:
(§2) Seeds of broadleaf weeds (abutilon, Solanum nigrum) or gramineous weeds (crabgrass, barnyard grass) were sown into nutrient soil in plastic cups, respectively, and then covered with soil, compacted, watered, and further cultivated in a greenhouse by conventional methods. The stems and leaves of the weeds were sprayed when the weeds reached the 2- to 3-leaf stage. The test compounds of the present application were dissolved in acetone respectively, followed by addition of Tween 80. The solution was diluted with a certain amount of water to a certain solubility, and then sprayed onto the plants using a spray tower. The test was repeated three times. After drying naturally in the shade, the plants were put in a greenhouse and managed according to conventional methods. The growth and development of weeds were observed, and the control effect of the test agent on weeds was checked visually periodically, which was expressed by 0-100%, with “0” representing no control effect, and “100%” representing complete killing or severe inhibition.

In another data set the test system is Solanum nigrum. The experiment in a line: Test of herbicidal activity, post-seedling stem and leaf spray in greenhouse, Solanum nigrum. To be noted: for Solanum nigrum (%) control effect: post-seedling stem and leaf spray. On the procedure: as §2
Another data set relates to barnyard grass. Put plainly: Test of herbicidal activity, post-seedling stem and leaf spray in greenhouse, barnyard grass. Particulars: for Barnyard grass (%) control effect: post-seedling stem and leaf spray. As to the method: as §2
A further data set relates to rice. Put plainly: Safety testing on rice, stem and leaf spray in greenhouse. To be noted: for Rice (%) safety (crop damage): stem and leaf spray; for inhibitory effect on rice (crop safety): at different doses, as compared to Control compounds A, B, and C, summary of Table 6. As to the method: as §1
A further data set deals with abutilon. Put plainly: Test of herbicidal activity, post-seedling stem and leaf spray in greenhouse, abutilon. Particulars: for Abutilon (%) control effect: post-seedling stem and leaf spray. As to the method:
as §2

[1] abbreviates: dose 300 g a.i/ha, 0 = no damage to crops, 100% = complete killing or severe inhibition.
[2] abbreviates: dose 300 g a.i/ha, 0 = no control effect, 100% = complete killing or severe inhibition.
The mark [3] stands for this setting: at different doses, summary of Table 5.

As for `CS(=O)(=O)c1ccc(C(=O)C2C(=O)CCCC2=O)c(Cl)c1CN1CCOCC1` [Control compound C, reference compound], the “Corn (%) safety (crop damage)” value with corn (dose 37.5 g a.i/ha) was 0%; in the data set on corn (dose 75 g a.i/ha), 0%; with corn (dose 150 g a.i/ha) it was 2%; with corn (setting [1]), 5%. Besides, the “Crabgrass (%) control effect” value in the data set on crabgrass (dose 37.5 g a.i/ha) is on record as 20%; in the data set on crabgrass (dose 75 g a.i/ha) it was 55%; in the data set on crabgrass (dose 150 g a.i/ha), 65%; with crabgrass (dose 300 g a.i/ha), 70%. Further, the “Solanum nigrum (%) control effect” value is 40% in the data set on Solanum nigrum (dose 37.5 g a.i/ha), 50% in the data set with Solanum nigrum (dose 75 g a.i/ha), 65% in the data set with Solanum nigrum (dose 150 g a.i/ha) and 85% with Solanum nigrum (dose 300 g a.i/ha). Further, the “Barnyard grass (%) control effect” value in the data set with barnyard grass (dose 37.5 g a.i/ha) was 35%; in the data set on barnyard grass (dose 75 g a.i/ha), 60%; with barnyard grass (dose 150 g a.i/ha), 70%; with barnyard grass (dose 300 g a.i/ha), 75%. Further, the “Rice (%) safety (crop damage)” value is 30% in the data set on rice (dose 37.5 g a.i/ha), 55% in the data set with rice (dose 75 g a.i/ha), 75% in the data set on rice (dose 150 g a.i/ha) and 85% in the data set with rice (dose 300 g a.i/ha). Moreover, the “Abutilon (%) control effect” value worked out at 45% in the data set with abutilon (dose 37.5 g a.i/ha), 55% in the data set with abutilon (dose 75 g a.i/ha), 70% in the data set with abutilon (dose 150 g a.i/ha) and 90% in the data set with abutilon (setting [2]).

Regarding `CS(=O)(=O)c1ccc(C(=O)C2C(=O)CCCC2=O)c(Cl)c1` [Control compound A, reference compound], the “Corn (%) safety (crop damage)” value was determined as 0% in the data set with corn (dose 37.5 g a.i/ha), 0% with corn (dose 75 g a.i/ha), 0% in the data set on corn (dose 150 g a.i/ha) and 5% in the data set on corn (setting [1]). For the same molecule, the “Crabgrass (%) control effect” value with crabgrass (dose 37.5 g a.i/ha) is given as 5%; in the data set with crabgrass (dose 75 g a.i/ha) it was 25%; in the data set on crabgrass (dose 150 g a.i/ha), 45%; with crabgrass (dose 300 g a.i/ha), 50%. The “Solanum nigrum (%) control effect” value in the data set with Solanum nigrum (dose 37.5 g a.i/ha) worked out at 50%; in the data set on Solanum nigrum (dose 75 g a.i/ha), 70%; in the data set with Solanum nigrum (dose 150 g a.i/ha), 90%; in the data set with Solanum nigrum (dose 300 g a.i/ha), 95%. Further, the “Barnyard grass (%) control effect” value came out at 10% in the data set on barnyard grass (dose 37.5 g a.i/ha), 30% in the data set with barnyard grass (dose 75 g a.i/ha), 50% in the data set on barnyard grass (dose 150 g a.i/ha) and 60% in the data set with barnyard grass (dose 300 g a.i/ha). Moreover, the “Rice (%) safety (crop damage)” value was 10% with rice (dose 37.5 g a.i/ha), 25% in the data set on rice (dose 75 g a.i/ha), 45% in the data set on rice (dose 150 g a.i/ha) and 60% in the data set on rice (dose 300 g a.i/ha). In addition, the “Abutilon (%) control effect” value with abutilon (dose 37.5 g a.i/ha) worked out at 50%; in the data set with abutilon (dose 75 g a.i/ha), 80%; in the data set with abutilon (dose 150 g a.i/ha), 98%; in the data set with abutilon (setting [2]), 100%.

For `Cc1nn(Cc2c(S(C)(=O)=O)ccc(C(=O)c3c(C4CC4)nn(C)c3OC(=O)c3c(C)nn(C)c3Cl)c2Cl)c(=O)o1` [Compound 201], the “inhibitory effect on corn (crop safety)” value in the data set with corn is on record as “no significant inhibitory effect”. In addition, the “Corn (%) safety (crop damage)” value with corn (dose 37.5 g a.i/ha), with corn (dose 75 g a.i/ha), in the data set on corn (dose 150 g a.i/ha) and in the data set on corn (setting [1]) was 0% each time. Besides, the “herbicidal activity against crabgrass compared with Control compounds A, B and C” value in the data set with crabgrass (setting [3]) is recorded as “better herbicidal activities”. The “Crabgrass (%) control effect” value with crabgrass (dose 37.5 g a.i/ha) is on record as 45%; in the data set with crabgrass (dose 75 g a.i/ha), 65%; in the data set on crabgrass (dose 150 g a.i/ha), 80%; with crabgrass (dose 300 g a.i/ha), 90%. Also, in the data set on Solanum nigrum (setting [3]), the “herbicidal activity against Solamum nigrum compared with Control compounds A, B and C” value is listed as “better herbicidal activities”. For the same molecule, the “Solanum nigrum (%) control effect” value in the data set on Solanum nigrum (dose 37.5 g a.i/ha) is recorded as 55%; in the data set with Solanum nigrum (dose 75 g a.i/ha), 75%; in the data set with Solanum nigrum (dose 150 g a.i/ha), 95%; in the data set on Solanum nigrum (dose 300 g a.i/ha), 100%. For the same molecule, the “herbicidal activity against barnyard grass compared with Control compounds A, B and C” value with barnyard grass (setting [3]) is listed as “better herbicidal activities”. For the same molecule, the “Barnyard grass (%) control effect” value is on record as 55% in the data set on barnyard grass (dose 37.5 g a.i/ha), 75% with barnyard grass (dose 75 g a.i/ha), 95% with barnyard grass (dose 150 g a.i/ha) and 100% in the data set on barnyard grass (dose 300 g a.i/ha). The “inhibitory effect on rice (crop safety)” value in the data set on rice is on record as “no significant inhibitory effect”. In addition, the “Rice (%) safety (crop damage)” value in the data set on rice (dose 37.5 g a.i/ha) amounted to 0%; in the data set on rice (dose 75 g a.i/ha) it was 0%; in the data set on rice (dose 150 g a.i/ha), 0%; in the data set with rice (dose 300 g a.i/ha) it was 2%. In addition, the “herbicidal activity against abutilon compared with Control compounds A, B and C” value in the data set on abutilon (setting [3]) is listed as “better herbicidal activities”. In addition, the “Abutilon (%) control effect” value in the data set with abutilon (dose 37.5 g a.i/ha) worked out at 55%; with abutilon (dose 75 g a.i/ha) it was 80%; in the data set on abutilon (dose 150 g a.i/ha), 92%; in the data set on abutilon (setting [2]), 98%.

As for `Cc1nn(C)c(O)c1C(=O)c1ccc(S(C)(=O)=O)cc1Cl` [Control compound B, reference compound], the “Corn (%) safety (crop damage)” value in the data set on corn (dose 37.5 g a.i/ha) was found to be 0%; in the data set with corn (dose 75 g a.i/ha), 0%; in the data set on corn (dose 150 g a.i/ha), 0%; in the data set on corn (setting [1]), 2%. The “Crabgrass (%) control effect” value is listed as 5% in the data set on crabgrass (dose 37.5 g a.i/ha), 15% in the data set on crabgrass (dose 75 g a.i/ha), 40% in the data set with crabgrass (dose 150 g a.i/ha) and 45% in the data set with crabgrass (dose 300 g a.i/ha). The “Solanum nigrum (%) control effect” value in the data set on Solanum nigrum (dose 37.5 g a.i/ha) came out at 40%; with Solanum nigrum (dose 75 g a.i/ha) it was 50%; in the data set with Solanum nigrum (dose 150 g a.i/ha), 65%; with Solanum nigrum (dose 300 g a.i/ha) it was 70%. Also, the “Barnyard grass (%) control effect” value is 10% in the data set on barnyard grass (dose 37.5 g a.i/ha), 25% in the data set with barnyard grass (dose 75 g a.i/ha), 45% with barnyard grass (dose 150 g a.i/ha) and 55% with barnyard grass (dose 300 g a.i/ha). For the same molecule, the “Rice (%) safety (crop damage)” value in the data set with rice (dose 37.5 g a.i/ha) stood at 10%; in the data set with rice (dose 75 g a.i/ha), 20%; in the data set on rice (dose 150 g a.i/ha), 40%; in the data set on rice (dose 300 g a.i/ha), 55%. In addition, the “Abutilon (%) control effect” value is given as 45% with abutilon (dose 37.5 g a.i/ha), 55% in the data set with abutilon (dose 75 g a.i/ha), 75% with abutilon (dose 150 g a.i/ha) and 85% with abutilon (setting [2]).

In the case of `Cc1nn(Cc2c(S(C)(=O)=O)ccc(C(=O)c3c(C)nn(C)c3O)c2Cl)c(=O)o1` [Compound 58], the “inhibitory effect on corn (crop safety)” value with corn is listed as “no significant inhibitory effect”. Also, the “Corn (%) safety (crop damage)” value in the data set with corn (dose 37.5 g a.i/ha), in the data set with corn (dose 75 g a.i/ha), in the data set on corn (dose 150 g a.i/ha) and in the data set with corn (setting [1]) was 0% each time. In the data set with rice, the “inhibitory effect on rice (crop safety)” value was “no significant inhibitory effect”. In addition, the “Rice (%) safety (crop damage)” value in the data set with rice (dose 37.5 g a.i/ha) came out at 0%; in the data set with rice (dose 75 g a.i/ha), 0%; in the data set with rice (dose 150 g a.i/ha) it was 0%; in the data set on rice (dose 300 g a.i/ha), 5%.
